Data reported in ChEMBL document CHEMBL4118155, “A naphthalene diimide G-quadruplex ligand inhibits cell growth and down-regulates BCL-2 expression in an imatinib-resistant gastrointestinal cancer cell line” (Bioorg Med Chem, 2018).
Activity calls are given as the source filed them. The rule behind the calls is not given here.

Key:
[1] = tested on: Quadruplex DNA; assay: Stabilization of 5'-FAM/3'-TAMRA labeled human F21T G-quadruplex DNA assessed as change in melting temperature at 0.5 uM by FRET assay; type: nucleic-acid assay
[2] = Antiproliferative activity against imatinib-resistant human GIST48 cells harboring c-KIT V560D/D820A double mutant after 96 hrs by SRB assay; type: functional; details: GIST48, 96 h
[3] = Stabilization of 5'-FAM/3'-TAMRA labeled 5'-UTR BCL-2 G-quadruplex RNA (unknown origin) assessed as change in melting temperature at 0.5 uM by FRET assay
[4] = tested on: dsDNA; assay: Stabilization of 5'-FAM/3'-TAMRA labeled duplex DNA (unknown origin) assessed as change in melting temperature at 0.5 uM by FRET assay; type: nucleic-acid assay
[5] = tested on: Quadruplex DNA; assay: Stabilization of 5'-FAM/3'-TAMRA labeled c-KIT1 G-quadruplex DNA (unknown origin) assessed as change in melting temperature at 0.5 uM by FRET assay; type: nucleic-acid assay
[6] = Antiproliferative activity against imatinib-resistant human GIST62 cells after 96 hrs by SRB assay; type: functional
[7] = tested on: MCF7; assay: Antiproliferative activity against human MCF7 cells after 96 hrs by SRB assay; type: functional, cell-based; details: MCF7, 96 h
[8] = tested on: Quadruplex DNA; assay: Stabilization of 5'-FAM/3'-TAMRA labeled BCL-2 promoter G-quadruplex DNA (unknown origin) assessed as change in melting temperature at 0.5 uM by FRET assay; type: nucleic-acid assay
[9] = Antiproliferative activity against imatinib-susceptible human GIST882 cells harboring c-KIT K642E mutant after 96 hrs by SRB assay; type: functional; details: GIST882, 96 h
[10] = tested on: Quadruplex DNA; assay: Stabilization of 5'-FAM/3'-TAMRA labeled c-KIT2 G-quadruplex DNA (unknown origin) assessed as change in melting temperature at 0.5 uM by FRET assay; type: nucleic-acid assay
[11] = tested on: HGC-27; assay: Antiproliferative activity against human HGC27 cells after 96 hrs by SRB assay; type: functional, cell-based; details: HGC-27, 96 h
[12] = tested on: Quadruplex DNA; assay: Stabilization of c-KIT G-quadruplex DNA in imatinib-susceptible human GIST882 cells harboring c-KIT K642E mutant assessed as downregulation of c-KIT protein expression at 1 uM after 24 hrs by immunoblot analysis relative to control
[13] = tested on: HT-29; assay: Antiproliferative activity against human HT-29 cells after 96 hrs by SRB assay; type: functional, cell-based; details: HT-29, 96 h
[14] = target: Telomerase reverse transcriptase (Homo sapiens) (UniProt O14746); assay: Inhibition of telomerase activity in imatinib-resistant human GIST48 cells harboring c-KIT V560D/D820A double mutant at 0.05 to 0.30 uM incubated for 1 week by Sybr green staining based TRAP-PCR method
Sequence of Telomerase reverse transcriptase (Homo sapiens) (O14746 whole entry): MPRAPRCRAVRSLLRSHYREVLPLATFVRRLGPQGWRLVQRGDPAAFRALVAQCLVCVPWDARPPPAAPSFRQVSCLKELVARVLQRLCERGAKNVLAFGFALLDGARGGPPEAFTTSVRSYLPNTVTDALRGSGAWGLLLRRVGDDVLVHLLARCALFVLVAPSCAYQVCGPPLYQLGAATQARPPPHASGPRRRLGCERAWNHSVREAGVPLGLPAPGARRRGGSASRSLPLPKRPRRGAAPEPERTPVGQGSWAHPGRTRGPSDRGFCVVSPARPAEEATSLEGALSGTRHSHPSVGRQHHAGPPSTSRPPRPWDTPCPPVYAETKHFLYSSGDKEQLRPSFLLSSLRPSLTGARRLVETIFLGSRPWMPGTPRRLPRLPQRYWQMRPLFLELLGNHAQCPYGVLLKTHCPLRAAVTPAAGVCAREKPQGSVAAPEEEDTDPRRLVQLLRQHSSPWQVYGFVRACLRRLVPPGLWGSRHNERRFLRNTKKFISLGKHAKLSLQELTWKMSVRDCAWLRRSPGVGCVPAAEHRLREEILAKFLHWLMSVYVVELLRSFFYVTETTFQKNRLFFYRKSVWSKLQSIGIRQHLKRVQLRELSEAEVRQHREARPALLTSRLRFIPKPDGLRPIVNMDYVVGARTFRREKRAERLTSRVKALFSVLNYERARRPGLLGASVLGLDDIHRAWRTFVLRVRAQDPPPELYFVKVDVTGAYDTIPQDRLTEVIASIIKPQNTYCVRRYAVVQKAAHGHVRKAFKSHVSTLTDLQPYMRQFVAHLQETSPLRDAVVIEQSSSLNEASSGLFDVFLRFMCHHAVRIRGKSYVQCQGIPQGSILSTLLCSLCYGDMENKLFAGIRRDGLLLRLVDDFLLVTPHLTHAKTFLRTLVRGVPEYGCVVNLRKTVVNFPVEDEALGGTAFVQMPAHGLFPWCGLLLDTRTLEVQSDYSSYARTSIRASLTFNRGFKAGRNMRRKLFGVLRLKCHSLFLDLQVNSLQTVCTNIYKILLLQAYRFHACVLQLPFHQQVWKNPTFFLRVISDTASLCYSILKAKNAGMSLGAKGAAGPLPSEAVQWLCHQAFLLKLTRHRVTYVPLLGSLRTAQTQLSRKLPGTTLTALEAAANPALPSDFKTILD

[15] = Stabilization of 5'-UTR BCL-2 G-quadruplex RNA (unknown origin) transfected in imatinib-susceptible human GIST882 cells harboring c-KIT K642E mutant assessed as decrease in RNA translation at 10 uM by dual luciferase reporter gene assay relative to control; design: scale not given: the % may be the effect or the level left
[16] = Stabilization of 5'-FAM/3'-TAMRA labeled 5'-UTR BCL-2 G-quadruplex RNA (unknown origin) assessed as melting temperature at 0.5 uM in presence of NaCl by FRET assay
[17] = target: Telomerase reverse transcriptase (Homo sapiens) (UniProt O14746); assay: Inhibition of telomerase activity in imatinib-susceptible human GIST882 cells harboring c-KIT K642E mutant at 0.5 uM incubated for 1 week by Sybr green staining based TRAP-PCR method
[18] = tested on: Quadruplex DNA; assay: Stabilization of c-KIT G-quadruplex DNA in imatinib-resistant human GIST48 cells harboring c-KIT V560D/D820A double mutant assessed as downregulation of c-KIT protein expression at 1 uM after 24 hrs by immunoblot analysis relative to control
[19] = tested on: Quadruplex DNA; assay: Stabilization of c-KIT G-quadruplex DNA in imatinib-resistant human GIST48 cells harboring c-KIT V560D/D820A double mutant assessed as downregulation of c-KIT protein expression at 1 uM after 1 week by immunoblot analysis relative to control
[20] = Stabilization of 5'-UTR BCL-2 G-quadruplex RNA (unknown origin) transfected in imatinib-susceptible human GIST882 cells harboring c-KIT K642E mutant assessed as decrease in RNA translation by dual luciferase reporter gene assay
[21] = species: Homo sapiens; assay: Stabilization of 5'-UTR BCL-2 G-quadruplex RNA in imatinib-resistant human GIST48 cells harboring c-KIT V560D/D820A double mutant at 0.3 uM after 1 week by immunoblot analysis relative to control
[22] = Stabilization of 5'-FAM/3'-TAMRA labeled 5'-UTR BCL-2 G-quadruplex RNA (unknown origin) assessed as melting temperature at 0.5 uM in presence of KCl by FRET assay

| Compound | ΔTm [1] | IC50 [2] | ΔTm [3] | ΔTm [4] | ΔTm [5] | IC50 [6] | ΔTm [8] | IC50 [9] | ΔTm [10] | IC50 [11] | other results |
| --- | --- | --- | --- | --- | --- | --- | --- | --- | --- | --- | --- |
| Cc1ccc(NC(=O)c2ccc(CN3CCN(C)CC3)cc2)cc1Nc1nccc(-c2cccnc2)n1 [IMATINIB] | 0.2 °C | 19800 nM | 0.1 °C | 0.1 °C | 0.2 °C | > 25000 nM | 0.1 °C | 1700 nM | 0.2 °C |  | IC50 [7]: 11300 nM |
| CN(C)c1ccc(Nc2c3ccc(NC(=O)CCN4CCCC4)cc3nc3cc(NC(=O)CCN4CCCC4)ccc23)cc1 | 21.6 °C | > 25000 nM |  | 7.2 °C | 6.5 °C | > 25000 nM | 17.9 °C | > 25000 nM | 18.5 °C | 2300 nM |  |
| O=C1c2cc(NCCN3CCCC3)c3c4c(cc(NCCN5CCCC5)c(c24)C(=O)N1CCN1CCCC1)C(=O)N(CCN1CCCC1)C3=O | 29.7 °C | 500 nM | 10.7 °C | 3.5 °C | 11.2 °C | 400 nM | 27.6 °C | 1600 nM | 29 °C | 100 nM | Activity [12]: 90%; IC50 [13]: 40 nM; inhibition [14]: inactive; Activity [15]: 30%; Tm [16]: 64.5 °C; inhibition [17]: Active; Activity [18]: 17%; Activity [19]: 37%; Activity [20]: Dose-dependent effect; Activity [21]: 85%; Tm [22]: 91 °C |
